We go through 3 compounds from patent US20160038449A1, “MULTI-COMPONENT PHARMACEUTICALS FOR TREATING DIABETES” (Complexa, Inc., priority 2010, published 2016).

Data set [1] has as its system WT mice. The data set can be described thus: Blood glucose level of fed WT mice after administration. The data set is classed as in vivo. As to conditions: for blood glucose level: fed WT mice, level maintained over the study (FIG. 1), vehicle control about 170 mg/dL. The protocol:
Oleic acid, nitro-oleic acid, rosiglitazone, or a vehicle control were administered to fed WT mice, and the blood glucose level of these mice was monitored.

The subject of data set [2] is ob/ob mice. Description: Blood glucose level of ob/ob mice after administration. As to conditions: ob/ob mice (FIG. 2). The class given is in vivo. The source says:
Similar results are observed in experiments involving ob/ob mice.

On the set-up of data set [3]: species or system mice. The conditions noted are these: mouse, in vivo. The protocol:
In addition to reducing blood glucose levels, substantially no increase in body weight was observed when nitro-oleic acid is administered to mice as compared to mice administered a vehicle control, oleic acid, or rosiglitazone.

For data set [4], the system named is WT mice. The data set can be described thus: Insulin sensitivity: blood glucose after administration of insulin in WT mice. The data set is classed as in vivo. As to conditions: 120 minute time course (FIG. 5).
Data set [5] deals with ob/ob mice. Description: Insulin sensitivity: blood glucose after administration of insulin in ob/ob mice. The data set is classed as in vivo. As to conditions: 120 minute time course (FIG. 6).

For the compound “9- or 10-nitro octadecenoic acid [nitro-oleic acid]”, the blood glucose level result in the data set with WT mice [1] is listed as “about 125 mg/dL”. Moreover, the “change of blood glucose level over the course of the study” value in the data set on ob/ob mice [2] is reported as “effectively reduced the blood glucose level over the course of the study”. Moreover, in data set [3], the “change of body weight over the course of the study” value (from here on “change of body weight”) was “initially decreased (days 0-10), and then remained substantially constant over the second half of the study”. In addition, the figures for the “blood glucose levels after administration of insulin” value in the data set with WT mice [4] and in the data set on ob/ob mice [5] were “initial drop in blood glucose levels after administration of insulin followed by an increase in blood glucose back to normal levels about 120 minutes after the administration of insulin” and “substantial decrease in blood glucose levels over the course of the 120 minute time period”, respectively.
Consider `CCCCCCCC/C=C\CCCCCCCC(=O)O` [oleic acid], for which the “change of blood glucose level over the course of the study” value in the data set with WT mice [1] (fed WT mice (FIG. 1)) is recorded as “increased blood glucose levels over the course of the study”; with ob/ob mice [2], “increased blood glucose level over the course of the study”. Besides, in data set [3], the “change of body weight” value is listed as “steady increase in body weight over the course of the study”. Besides, the “blood glucose levels after administration of insulin” value with ob/ob mice [5] is recorded as “increased over the 120 minute time course”.
For `CN(CCOc1ccc(CC2SC(=O)NC2=O)cc1)c1ccccn1` (centres unmarked) [rosiglitazone], the blood glucose level entry in the data set with WT mice [1] was “about 150 mg/dL”. Further, the “change of body weight” value in data set [3] is reported as “steady increase in body weight over the course of the study”.
